According to patent US20100268321A1, “DRUG-RELEASING GRAFT” (C R BARD, INC., priority 2005, published 2010):

Assay: Controlled release study: release of chlorhexidine acetate (ChAc) from drug-loaded ePTFE vascular cuff graft sections into PBS, UV absorbance
Type: physicochemical
Settings: from ePTFE cuff section in PBS
Method: With respect to a vascular cuff graft, examples of which are shown in FIGS. 2 and 3, experimentation was conducted to study the release of a drug without a polymeric carrier from the cuff surface. The drug chosen for the experiment was chlorhexidine acetate (ChAc) and the release time was scheduled for nine weeks. The materials and methods of the experiment included creating a calibration curve, preparing the vascular cuff grafts, and measuring absorbance, each of which is described in detail below.
Initially, a calibration curve was created to determine the concentration of ChAc in phosphate buffered saline (PBS). […] The absorbance of each of these solutions was determined using the Shimadzu UV-1601 spectrophotometer. A curve of absorbance versus concentration was expected to be linear. […]
To prepare the vascular cuff grafts, the drug was embedded therein using the following procedure. […] The cuff section weights with the loaded drug were then determined and recorded. The cuff section weights without the loaded drug were determined after the study by washing the cuffs with ethanol and drying. […]
Absorbance was measured to determine the amount of drug released from the cuff sections. […] The PBS solutions were then analyzed using the Shimadzu UV 1600 spectrophotometer. […] The absorbance at ˜286 nm was recorded by automatic peak detection by the spectrophotometer. […]

- levels of the drug in release medium (after nine weeks): still detectable
- drug released (after one day): approximately 50%
SMILES: CC(=O)O.CC(=O)O.NC(=N\CCCCCC/N=C(N)/N=C(\N)Nc1ccc(Cl)cc1)/N=C(\N)Nc1ccc(Cl)cc1 [ChAc, chlorhexidine acetate]
